# Paper PMC10906223 (JCI Insight, 2024)
# Where “and” joins values, the source holds several entries; their conditions need not be identical. Equal entries are not always repeated.
# Legend:
# [1] = system: isolated islets of donors with T1D; test: Glucagon secretion from isolated islets of donors with T1D; format: cell-based, human; details: for Secretion of glucagon: isolated islets, T1D donors, one value per donor, Figure 2G
# Procedure: (§1) The Integrated Islet Distribution Program provided us human donor islets with their characteristics (Supplemental Table 6). Islets were centrifuged at 500g for 3 minutes, resuspended in CMRL 1066 medium (Gibco, catalog 1150-037) containing 11 mM glucose, and rested in an incubator overnight.
# (§2) For the hormone secretion assay, islets or dispersed islet cells were adapted in KRBH buffer containing 11 mM glucose for 1 hour. Then, after 2 washes in HBSS containing 11 mM glucose, islets or cells were treated in the following sequential order in the presence or absence of WCDD301: incubation in KRBH (1 mM glucose, 30 minutes) followed by medium collection, incubation in KRBH (11 mM glucose, 30 minutes) followed by medium collection.
# [2] = system: dispersed islet cells of donors with T1D; test: Insulin secretion from dispersed islet cells of donors with T1D; format: cell-based, human; details: for Secretion of insulin: dispersed islet cells, T1D donors, one value per donor, Figure 2J;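 as to Secretion of insulin: insulin concentration in collected medium by Lumit immunoassay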
# Procedure: Pancreata of nondiabetic C57BL/6J mice were digested using collagenase P (Roche Diagnostics, catalog 11213873001), and islets were manually picked up using a stereomicroscope (ZEISS Stemi 305). […] Isolated mouse islets or provided human islets were dispersed as described ([28]). Briefly, 100–120 islets were washed 2 times using modified HBSS, then dispersed in 600 μL Accutase (Innovative Cell Technologies, catalog AT-104) by gently pipetting up and down for 7 minutes at 37°C. […] Following refreshing of KRBH, cells were dispensed in 8 microfuge tubes (2,000 cells/tube) and treated with WCDD301, preclustered Ephrin-A5 Fc, or preclustered Fc in the presence or absence of the competitive inhibitor of EphA4 receptor, rhyncophylline ([60]) (MilliporeSigma, catalog SML2345). In the presence or absence of these effectors, secretion assay was performed sequentially as shown in Supplemental Table 5. […] Preclustering of Ephrin-A5 Fc was done by mixing Ephrin-A5 Fc or Fc alone (BioLegend, catalog 790102) with anti-Fc antibody (Invitrogen, catalog A16086) (1:10 molar ratio) 20 minutes before treatment ([62]). […] Shedding of cleaved EphA4 was measured from the cell culture medium. Experiments were performed by dispersion of 200 islets, and EphA4 levels in media were measured by EphA4 ELISA (ABclonal, catalog RK06572).
# as §1, §2
# [3] = system: human dispersed islet cells; test: Immunofluorescence: F-actin intensity in glucagon+ human dispersed islet cells; format: cell-based;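 as to F-actin intensity: ImageJ intensity within ROI drawn around each glucagon+ cell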
# Procedure: Coverslips were treated with WCDD301, preclustered Ephrin-A5 Fc, or preclustered Fc in the following sequential order: KRBH (11 mM glucose, 30 minutes), KRBH (1 mM glucose, 60 minutes), KRBH (1 mM glucose, 30 minutes), and KRBH (11 mM glucose, 60 minutes). After treatment, coverslips were washed once in PBS, fixed in 2% paraformaldehyde in PBS (30 minutes), and again washed in PBS. […] Following wash in PBS, coverslips were incubated in a mixture of Alexa Fluor 555 Phalloidin (Cell Signaling Technology, catalog 8953) and secondary antibodies (goat anti-rabbit Alexa Fluor 488, catalog A-21094, 1:1,000, Molecular Probes; and goat anti-mouse Alexa Fluor 633, catalog A21052, 1:1,000, Life Technologies) for 1 hour at RT. Both primary and secondary antibodies were diluted in blocking buffer containing 0.05% Tween 20. Coverslips were washed using PBS and counterstained by using DAPI (1:1,000) for 10 minutes. Following 2 washes in PBS, coverslips were mounted on glass slides using ProLong Glass Antifade Mountant (Invitrogen, catalog P36980). Images were captured using the Zeiss LSM880 microscope with a Plan-Apochromat 63× 1.4 NA objective lens by setting dual-band dichroic/filter for 405, 488, 561, and 633 nm laser excitation. For each slide, 25–30 fields of view were scanned, and in each field of view, 3–5 cells were imaged. […] Values of intensity were compared among groups using 1-way ANOVA, α = 0.05.
# [4] = Microsomal stability assay, CD-1 mouse liver microsomes; format: in vitro ADME; details: for Remaining in hepatic microsomes (100 at 0 min): mouse microsomes, Figure 5D
# Procedure: A total of 445 μL of the working solution was transferred into prewarmed incubation plates for treated (T60) and control (NCF60) measurements. After preincubation (10 minutes at 37°C with constant shaking), 54 μL was transferred to the blank plate, followed by 6 μL of NADPH and 180 μL quenching solution. In parallel, 5 μL of WCDD301 (100 μM) was added into incubation plates (T60 and NCF60) containing microsomes and mixed thoroughly (3 times). For the NCF60 plate, 50 μL of buffer was added, mixed (thoroughly, 3 times), shaken, and incubated at 37°C for 60 minutes. In the quenching plate T0, quenching solution (180 μL) and NADPH cofactor (6 μL) were added. For T60 plate, 54 μL of the mixture was placed into the quenching plate (for T0 point), followed by adding 44 μL NADPH cofactor with shaking incubation at 37°C for 60 minutes. Quenching solution (180 μL) was added to quenching plates at 5, 15, 30, 45, and 60 minutes, and 60 μL of sample was transferred from T60 plate per time point to the quenching plates. For the NCF60 plates, 60 μL sample from the NCF60 incubation plate was transferred to the quenching plate (containing quenching solution) at the 60-minute time point. After plates were shaken for 10 minutes and centrifuged (1,750g, 20 minutes at 4°C), 80 μL of the supernatant was transferred into 240 μL HPLC water for LC-MS/MS analysis. The following first-order kinetic equation was used to calculate half-life (T1/2): [drawing 3]; when
# Then, intrinsic clearance [CLint (microsomal; mic)] and hepatic clearance [CLint (liver)] were predicted using the following equations ([66]): […]
smiles,measurement,setting,value
"CC(=O)OCC(N)(COC(C)=O)COC(C)=O [WCDD301, 2-(acetoxymethyl)-2-aminopropane-1,3-diyl diacetate]",Effect on glucagon secretion,[1]; islets from donors with long-standing T1D,reduced glucagon secretion
same,Secretion of glucagon,[1]; 1 mM glucose,39.575 and 41.23
same,Secretion of glucagon,[1]; 11 mM glucose,36.8 and 30.22
same,Effect on insulin secretion,[2]; dispersed islet cells from donors with long-standing T1D,no effect on the minimal residual insulin secretion
same,Secretion of insulin,[2]; 1 mM glucose,0.0567 and 0.08
same,Secretion of insulin,[2]; 11 mM glucose,0.07 and 0.05
same,F-actin intensity,"[3]; human cells, individual values, Figure 3E",9.0 and 7.2 and 6.5 and 10.4 and 8.2 and 4.2 and 10.3 and 9.6 and 6.8
same,Effect on intracellular F-actin,"[3]; α cells, human donors",increased intracellular F-actin density
same,half-life at 1 µM,"[4]; CD-1, mouse, liver microsomes",1.56 h
same,microsomal CLint at 1 µM,"[4]; CD-1, mouse, liver microsomes, read-out: Intrinsic microsomal clearance",14.8 µL/min/mg
same,Remaining in hepatic microsomes (100 at 0 min),[4]; 5 min,95.6
same,Remaining in hepatic microsomes (100 at 0 min),[4]; 15 min,86.5
same,Remaining in hepatic microsomes (100 at 0 min),[4]; 30 min,79.8
same,Remaining in hepatic microsomes (100 at 0 min),[4]; 45 min,69.6
same,Remaining in hepatic microsomes (100 at 0 min),[4]; 60 min,64.2
same,Hepatic clearance,"[4]; mouse, predicted from microsomal data",58.7 mL/min/kg
